# Experimental data taken from the NIST ThermoML archive (doi:10.1016/j.jct.2018.05.023).
# ± gives the expanded uncertainty stated by the source.
# Assay: Molar enthalpy of transition or fusion
# Settings: Crystal; DSC
row,Molar enthalpy of transition or fusion,Compound
1,1.39 ± 0.12 kcal/mol,[Ga] [gallium]

# Assay: not given
# Settings: Crystal; DTA
row,Normal melting temperature,Compound
1,35.0 ± 1.1 °C,CCCCCCCCCCCCCCCCCCCC [eicosane]
2,18 ± 1.1 °C,CCCCCCCCCCCCCCCC [hexadecane]
3,5.8 ± 1.1 °C,CCCCCCCCCCCCCC [tetradecane]

# Second part, the compound before the results:
row,Compound,Normal melting temperature
1,C1CCCCC1 [cyclohexane],7 ± 1.1 °C
2,CCCCCCCCCCCC [dodecane],-9.4 ± 1.1 °C
3,[Ga] [gallium],30.2 ± 1.1 °C
4,O [water],0.4 ± 1.1 °C
